Measured values published in ChEMBL document CHEMBL5550201, “Discovery of a Highly Potent, Selective and Efficacious USP7 Degrader for the Treatment of Acute Lymphoblastic Leukemia” (J Med Chem, 2024).
Activity calls are given as the source filed them. No cut-off for these calls is given here.

Assays:
[1] = system: RS4-11; assay: Induction of apoptosis in human RS4-11 cells assessed as viable cells at 100 nM measured after 72 hrs by FITC-annexin-V/PI analysis (reference value: 91.41%); format: functional; settings: read-out: Activity
[2] = system: RS4-11; assay: Induction of apoptosis in human RS4-11 cells assessed as early apoptotic cells at 1 nM measured after 72 hrs by FITC-annexin-V/PI analysis (reference value: 5.36%); format: functional
[3] = system: RS4-11; assay: Upregulation of p53 protein expression in human RS4-11 cells measured after 12 hrs incubation by Western blot analysis; format: functional, cell-based; settings: dose 10-100 nM
[4] = target: T1, von Hippel-Lindau disease tumor suppressor/Ubiquitin carboxyl-terminal hydrolase 7 (Homo sapiens, UniProt Q93009+P40337); assay: PROTACT activity at USP7/VHL in human RS4;11 cells assessed as protein degradation at 10 nM measured after 6 hrs in presence of proteasome inhibitors PS-341 by Western blot analysis; format: cell-based
Target sequence in this assay (P40337 whole entry, looked up): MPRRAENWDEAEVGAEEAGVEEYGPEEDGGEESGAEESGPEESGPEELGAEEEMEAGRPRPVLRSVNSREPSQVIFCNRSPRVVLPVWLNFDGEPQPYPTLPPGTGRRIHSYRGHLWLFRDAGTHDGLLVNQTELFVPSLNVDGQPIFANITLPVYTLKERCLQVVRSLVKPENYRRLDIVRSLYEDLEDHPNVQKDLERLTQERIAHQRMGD
Target sequence in this assay (Q93009 whole entry, looked up): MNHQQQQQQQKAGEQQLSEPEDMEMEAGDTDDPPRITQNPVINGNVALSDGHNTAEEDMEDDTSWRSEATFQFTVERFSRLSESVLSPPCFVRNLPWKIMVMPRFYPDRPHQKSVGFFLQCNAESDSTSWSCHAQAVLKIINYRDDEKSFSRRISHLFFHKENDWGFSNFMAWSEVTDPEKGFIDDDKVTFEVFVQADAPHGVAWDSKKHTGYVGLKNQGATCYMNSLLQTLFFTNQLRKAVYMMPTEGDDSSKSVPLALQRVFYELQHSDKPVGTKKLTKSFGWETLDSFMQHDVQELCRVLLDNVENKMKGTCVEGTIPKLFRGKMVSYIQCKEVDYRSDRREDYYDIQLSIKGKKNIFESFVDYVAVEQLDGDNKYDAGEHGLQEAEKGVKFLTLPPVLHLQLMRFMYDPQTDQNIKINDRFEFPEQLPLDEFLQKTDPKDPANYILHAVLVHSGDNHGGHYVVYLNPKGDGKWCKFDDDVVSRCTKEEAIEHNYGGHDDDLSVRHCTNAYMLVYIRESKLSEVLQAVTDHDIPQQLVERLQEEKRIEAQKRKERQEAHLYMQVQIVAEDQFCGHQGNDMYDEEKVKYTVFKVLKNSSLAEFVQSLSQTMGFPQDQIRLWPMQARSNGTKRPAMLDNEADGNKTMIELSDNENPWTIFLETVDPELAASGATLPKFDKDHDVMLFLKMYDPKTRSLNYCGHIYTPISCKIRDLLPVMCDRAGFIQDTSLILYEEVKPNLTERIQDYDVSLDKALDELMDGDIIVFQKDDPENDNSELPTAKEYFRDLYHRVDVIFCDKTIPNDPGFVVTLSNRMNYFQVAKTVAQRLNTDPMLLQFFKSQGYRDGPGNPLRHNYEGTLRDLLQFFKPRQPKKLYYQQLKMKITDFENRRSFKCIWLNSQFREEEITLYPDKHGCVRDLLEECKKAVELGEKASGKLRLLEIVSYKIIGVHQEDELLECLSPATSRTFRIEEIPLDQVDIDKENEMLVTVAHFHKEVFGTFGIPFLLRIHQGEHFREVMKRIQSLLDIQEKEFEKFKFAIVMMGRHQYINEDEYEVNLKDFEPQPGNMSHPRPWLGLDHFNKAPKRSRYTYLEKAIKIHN

[5] = system: RS4-11; assay: Induction of apoptosis in human RS4-11 cells assessed as early apoptotic cells at 1000 nM measured after 72 hrs by FITC-annexin-V/PI analysis (reference value: 5.36%); format: functional
[6] = system: RS4-11; assay: Antiproliferative activity against human RS4-11 cells with wild type p53 assessed as cell viability measured after 3 days by PMS-MTS assay; format: functional, cell-based; settings: RS4-11, 72 h
[7] = system: REH; assay: Antiproliferative activity against human REH cells with wild type p53 assessed as cell viability measured after 3 days by PMS-MTS assay; format: functional, cell-based; settings: 72 h
[8] = system: RS4-11; assay: Induction of apoptosis in human RS4-11 cells assessed as viable cells at 10 nM measured after 72 hrs by FITC-annexin-V/PI analysis (reference value: 91.41%); format: functional; settings: read-out: Activity
[9] = Toxicity in NOD/SCID mouse xenografted with human RS4-11 cells assessed as signs of toxicity at 5 to 20 mg/kg, ip daily measured after 18 days relative to control; format: organism-based; settings: in vivo, 432 h, dose 5-20 mg/kg, time 18 day
[10] = target: T1, von Hippel-Lindau disease tumor suppressor/Ubiquitin carboxyl-terminal hydrolase 7; assay: PROTACT activity at USP7/VHL in human RS4;11 cells assessed as protein degradation at 10 nM measured after 6 hrs in presence of proteasome inhibitors PS-171 by Western blot analysis; format: cell-based
Target sequence in this assay (P40337 whole entry, looked up): as the sequence (P40337 whole entry, looked up) above
Target sequence in this assay (Q93009 whole entry, looked up): as the sequence (Q93009 whole entry, looked up) above

[11] = target: T1, von Hippel-Lindau disease tumor suppressor/Ubiquitin carboxyl-terminal hydrolase 7; assay: PROTACT activity at USP7/VHL in human RS4;11 cells assessed as protein degradation at 100 nM measured after 24 hrs by Western blot analysis relative to control; format: cell-based
Target sequence in this assay (P40337 whole entry, looked up): as the sequence (P40337 whole entry, looked up) above
Target sequence in this assay (Q93009 whole entry, looked up): as the sequence (Q93009 whole entry, looked up) above

[12] = system: RS4-11; assay: Induction of apoptosis in human RS4-11 cells assessed as viable cells at 1000 nM measured after 72 hrs by FITC-annexin-V/PI analysis (reference value: 91.41%); format: functional; settings: read-out: Activity
[13] = target: T1, von Hippel-Lindau disease tumor suppressor/Ubiquitin carboxyl-terminal hydrolase 7; assay: PROTACT activity at USP7/VHL in human RS4;11 cells assessed as maximal protein degradation measured after 24 hrs by Western blot analysis relative to control; format: cell-based
Target sequence in this assay (P40337 whole entry, looked up): as the sequence (P40337 whole entry, looked up) above
Target sequence in this assay (Q93009 whole entry, looked up): as the sequence (Q93009 whole entry, looked up) above

[14] = system: RS4-11; assay: Induction of apoptosis in human RS4-11 cells assessed as late apoptotic cells at 10 nM measured after 72 hrs by FITC-annexin-V/PI analysis (reference value: 3.23%); format: functional
[15] = target: T1, von Hippel-Lindau disease tumor suppressor/Ubiquitin carboxyl-terminal hydrolase 7; assay: PROTACT activity at USP7/VHL in human RS4;11 cells assessed as protein degradation at 10 nM measured after 6 hrs in presence of (R)-3-(4-(aminomethyl)phenyl)-6-((4-hydroxy-1-(3-phenylbutanoyl)piperidin-4-yl)methyl)-2-methyl-2,6-dihydro-7H-pyrazolo[4,3-d]pyrimidin-7-one by Western blot analysis; format: cell-based
Target sequence in this assay (P40337 whole entry, looked up): as the sequence (P40337 whole entry, looked up) above
Target sequence in this assay (Q93009 whole entry, looked up): as the sequence (Q93009 whole entry, looked up) above

[16] = target: T1, von Hippel-Lindau disease tumor suppressor/Ubiquitin carboxyl-terminal hydrolase 7; assay: PROTACT activity at USP7/VHL in human RS4;11 cells assessed as protein degradation at 10 to 100 nM measured after 12 hrs by Western blot analysis; format: cell-based; settings: dose 10-100 nM
Target sequence in this assay (P40337 whole entry, looked up): as the sequence (P40337 whole entry, looked up) above
Target sequence in this assay (Q93009 whole entry, looked up): as the sequence (Q93009 whole entry, looked up) above

[17] = Toxicity in NOD/SCID mouse xenografted with human RS4-11 cells assessed as body weight change at 5 to 20 mg/kg, ip daily measured after 18 days relative to control; format: organism-based; settings: in vivo, 432 h, dose 5-20 mg/kg, time 18 day
[18] = system: RS4-11; assay: Induction of apoptosis in human RS4-11 cells assessed as late apoptotic cells at 1 nM measured after 72 hrs by FITC-annexin-V/PI analysis (reference value: 3.23%); format: functional
[19] = system: RS4-11; assay: Induction of apoptosis in human RS4-11 cells assessed as viable cells at 1 nM measured after 72 hrs by FITC-annexin-V/PI analysis (reference value: 91.41%); format: functional; settings: read-out: Activity
[20] = system: RS4-11; assay: Induction of cell cycle arrest in human RS4-11 cells assessed as assessed as accumulation cells at G1/G0 phase measured after 12 hrs by flow cytometry; format: functional, cell-based; settings: dose 1-1000 nM
[21] = system: RS4-11; assay: Induction of apoptosis in human RS4-11 cells assessed as late apoptotic cells at 100 nM measured after 72 hrs by FITC-annexin-V/PI analysis (reference value: 3.23%); format: functional
[22] = target: T1, von Hippel-Lindau disease tumor suppressor/Ubiquitin carboxyl-terminal hydrolase 7; assay: PROTACT activity at USP7/VHL in human RS4;11 cells assessed as protein degradation at 10 nM measured after 2 to 4 hrs by Western blot analysis; format: cell-based; settings: time 2-4 hrs
[23] = system: RS4-11; assay: Induction of apoptosis in human RS4-11 cells assessed as necrotic cells at 10 nM measured after 72 hrs by FITC-annexin-V/PI analysis (reference value: 0%); format: functional
[24] = system: RS4-11; assay: Induction of apoptosis in human RS4-11 cells assessed as necrotic cells at 1000 nM measured after 72 hrs by FITC-annexin-V/PI analysis (reference value: 0%); format: functional
[25] = system: RS4-11; assay: Antitumor activity against human RS4-11 cells xenografted in NOD/SCID mouse model assessed as decrease in USP7 level in tumor at 5 to 20 mg/kg, ip daily measured after 18 days relative to control; format: functional, organism-based; settings: dose 5-20 mg/kg, time 18.0 day
[26] = target: T1, von Hippel-Lindau disease tumor suppressor/Ubiquitin carboxyl-terminal hydrolase 7; assay: PROTACT activity at USP7/VHL in human RS4;11 cells assessed as protein degradation at 10 nM measured after 24 hrs by Western blot analysis relative to control; format: cell-based
[27] = system: RS4-11; assay: Induction of apoptosis in human RS4-11 cells assessed as late apoptotic cells at 1000 nM measured after 72 hrs by FITC-annexin-V/PI analysis (reference value: 3.23%); format: functional
[28] = system: RS4-11; assay: Induction of apoptosis in human RS4-11 cells assessed as necrotic cells at 100 nM measured after 72 hrs by FITC-annexin-V/PI analysis (reference value: 0%); format: functional
[29] = system: RS4-11; assay: Antiproliferative activity against human RS4-11 cells with shp53 assessed as cell viability measured after 7 days by PMS-MTS assay; format: functional, cell-based; settings: RS4-11, 168 h
[30] = system: RS4-11; assay: Antitumor activity against human RS4-11 cells xenografted in NOD/SCID mouse model assessed as tumor growth inhibition at 10 mg/kg, ip daily measured after 18 days relative to control; format: functional; settings: RS4-11, 432 h, time 18 day, read-out: TGI
[31] = target: T1, von Hippel-Lindau disease tumor suppressor/Ubiquitin carboxyl-terminal hydrolase 7; assay: PROTACT activity at USP7/VHL in human RS4;11 cells assessed as protein degradation measured after 24 hrs by Western blot analysis; format: cell-based
Target sequence in this assay (Q93009 whole entry): as the sequence (Q93009 whole entry, looked up) above
Target sequence in this assay (P40337 whole entry): as the sequence (P40337 whole entry, looked up) above

[32] = system: RS4-11; assay: Induction of apoptosis in human RS4-11 cells assessed as early apoptotic cells at 100 nM measured after 72 hrs by FITC-annexin-V/PI analysis (reference value: 5.36%); format: functional
[33] = target: T1, von Hippel-Lindau disease tumor suppressor/Ubiquitin carboxyl-terminal hydrolase 7; assay: PROTACT activity at USP7/VHL in human RS4;11 cells assessed as protein degradation at 10 nM measured after 6 hrs in presence of VHL-binder by Western blot analysis; format: cell-based

Q: With `Cc1ncsc1-c1ccc([C@H](C)NC(=O)[C@@H]2C[C@@H](O)CN2C(=O)[C@@H](c2cc(N3CCN(Cc4ccc(-c5c6ncn(CC7(O)CCN(C(=O)C[C@@H](C)c8ccccc8)CC7)c(=O)c6nn5C)cc4)CC3)no2)C(C)C)cc1` as the compound, how does the viability at 0.1 µM [1] read?
A: The viability at 0.1 µM was 59.7%.

Q: And the Activity [2]?
A: Its Activity is 12.45%.

Q: And the Activity [3]?
A: The Activity was “Dose-Dependent Effect”.

Q: What about the Activity [4] of the same compound?
A: The Activity was “inactive”.

Q: And the Activity [5]?
A: The Activity was 19.81%.

Q: What about the IC50 [6] of the same compound?
A: Its IC50 is 0.5 nM.

Q: And the IC50 [7]?
A: Its IC50 is 8.3 nM.

Q: And the viability at 0.01 µM [8]?
A: Its viability at 0.01 µM is 65.7%.

Q: What about the Activity [9] of the same compound?
A: Its Activity is “Non-Toxic”.

Q: What about the Activity [10] of the same compound?
A: The Activity was “inactive”.

Q: And the Activity [11]?
A: The Activity was 91.7%.

Q: And the viability at 1 µM [12]?
A: Its viability at 1 µM is 55.3%.

Q: And the Emax [13]?
A: Its Emax is 93.1%.

Q: And the Activity [14]?
A: The Activity was 16.98%.

Q: What about the Activity [15] of the same compound?
A: Its Activity is “inactive”.

Q: And the Activity [16]?
A: The Activity was “Active”.

Q: What about the Activity [17] of the same compound?
A: Its Activity is “Non-Toxic”.

Q: And the Activity [18]?
A: The Activity was 12.98%.

Q: And the viability at 0.001 µM [19]?
A: The viability at 0.001 µM was 74.6%.

Q: What about the Activity [20] of the same compound?
A: Its Activity is “Dose-Dependent Effect”.

Q: And the Activity [21]?
A: The Activity was 20.73%.

Q: And the Activity [22]?
A: The Activity was “Active”.

Q: And the Activity [23]?
A: The Activity was 0.01%.

Q: And the Activity [24]?
A: Its Activity is 0%.

Q: What about the Activity [25] of the same compound?
A: The Activity was “Active”.

Q: What about the Activity [26] of the same compound?
A: The Activity was 91.6%.

Q: And the Activity [27]?
A: Its Activity is 24.89%.

Q: And the Activity [28]?
A: Its Activity is 0.01%.

Q: What about the IC50 [29] of the same compound?
A: Its IC50 is greater than 20000 nM.

Q: What about the inhibition in vivo at 10 mg/kg [30] of the same compound?
A: Its inhibition in vivo at 10 mg/kg is 60.8%.

Q: What about the DC50 [31] of the same compound?
A: Its DC50 is 0.74 nM.

Q: What about the Activity [32] of the same compound?
A: The Activity was 19.6%.

Q: What about the Activity [33] of the same compound?
A: Its Activity is “inactive”.
